Reference: patent US11981658B2, “Substituted aminopyridine compounds as EGFR inhibitors” (YUHAN CORPORATION, priority 2021, dated 2024)
Like-named read-outs stand apart in the source and are kept apart here.

Assays:
EGFR wildtype (WT) = EGFR wildtype (WT) (Homo sapiens, UniProt P00533); assay: Biochemical EGFR kinase inhibition assay (Lance Ultra TR-FRET), wildtype
Procedure, shortened: (§1)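 In this biochemical assay, phosphorylation after a one-hour room-temperature reaction was detected with europium-labelled anti-phosphopeptide antibody at 2 nM final concentration.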

EGFR L858R/C797S = EGFR L858R/C797S (Homo sapiens, UniProt P00533, C797S/L858R); assay: Biochemical EGFR kinase inhibition assay (Lance Ultra TR-FRET), double mutant L858R/C797S
Procedure, shortened: as §1

EGFR L858R/T790M/C797S = EGFR L858R/T790M/C797S (Homo sapiens, UniProt P00533, C797S/L858R/T790M); assay: Biochemical EGFR kinase inhibition assay (Lance Ultra TR-FRET), triple mutant L858R/T790M/C797S
Procedure, shortened: as §1

EGFR Del19/T790M/C797S = EGFR Del19/T790M/C797S (Homo sapiens, UniProt P00533, C797S/DEL746-750/T790M); assay: Biochemical EGFR kinase inhibition assay (Lance Ultra TR-FRET), triple mutant del19/T790M/C797S
Procedure, shortened: as §1

EGFR Del19/C797S = EGFR Del19/C797S (Homo sapiens, UniProt P00533, C797S/DEL746-750); assay: Biochemical EGFR kinase inhibition assay (Lance Ultra TR-FRET), double mutant del19/C797S
Procedure, shortened: as §1

[1] = IC50 L858R/C797S (nM), 100 μM ATP
[2] = IC50 L858R/T790M/C797S (nM), 100 μM ATP
[3] = IC50 Del19/T790M/C797S (nM), 100 μM ATP
[4] = IC50 Del19/C797S (nM), 100 μM ATP
[5] = Km ATP, read-out: IC50 WT (nM) Km ATP
[6] = Km ATP, read-out: IC50 L858R/C797S (nM) Km ATP
[7] = Km ATP, read-out: IC50 L858R/T790M/C797S (nM) Km ATP
[8] = Km ATP, read-out: IC50 Del19/T790M/C797S (nM) Km ATP
[9] = Km ATP, read-out: IC50 Del19/C797S (nM) Km ATP

Sequence of EGFR L858R/T790M/C797S (P00533 25-1210 T790M/C797S/L858R): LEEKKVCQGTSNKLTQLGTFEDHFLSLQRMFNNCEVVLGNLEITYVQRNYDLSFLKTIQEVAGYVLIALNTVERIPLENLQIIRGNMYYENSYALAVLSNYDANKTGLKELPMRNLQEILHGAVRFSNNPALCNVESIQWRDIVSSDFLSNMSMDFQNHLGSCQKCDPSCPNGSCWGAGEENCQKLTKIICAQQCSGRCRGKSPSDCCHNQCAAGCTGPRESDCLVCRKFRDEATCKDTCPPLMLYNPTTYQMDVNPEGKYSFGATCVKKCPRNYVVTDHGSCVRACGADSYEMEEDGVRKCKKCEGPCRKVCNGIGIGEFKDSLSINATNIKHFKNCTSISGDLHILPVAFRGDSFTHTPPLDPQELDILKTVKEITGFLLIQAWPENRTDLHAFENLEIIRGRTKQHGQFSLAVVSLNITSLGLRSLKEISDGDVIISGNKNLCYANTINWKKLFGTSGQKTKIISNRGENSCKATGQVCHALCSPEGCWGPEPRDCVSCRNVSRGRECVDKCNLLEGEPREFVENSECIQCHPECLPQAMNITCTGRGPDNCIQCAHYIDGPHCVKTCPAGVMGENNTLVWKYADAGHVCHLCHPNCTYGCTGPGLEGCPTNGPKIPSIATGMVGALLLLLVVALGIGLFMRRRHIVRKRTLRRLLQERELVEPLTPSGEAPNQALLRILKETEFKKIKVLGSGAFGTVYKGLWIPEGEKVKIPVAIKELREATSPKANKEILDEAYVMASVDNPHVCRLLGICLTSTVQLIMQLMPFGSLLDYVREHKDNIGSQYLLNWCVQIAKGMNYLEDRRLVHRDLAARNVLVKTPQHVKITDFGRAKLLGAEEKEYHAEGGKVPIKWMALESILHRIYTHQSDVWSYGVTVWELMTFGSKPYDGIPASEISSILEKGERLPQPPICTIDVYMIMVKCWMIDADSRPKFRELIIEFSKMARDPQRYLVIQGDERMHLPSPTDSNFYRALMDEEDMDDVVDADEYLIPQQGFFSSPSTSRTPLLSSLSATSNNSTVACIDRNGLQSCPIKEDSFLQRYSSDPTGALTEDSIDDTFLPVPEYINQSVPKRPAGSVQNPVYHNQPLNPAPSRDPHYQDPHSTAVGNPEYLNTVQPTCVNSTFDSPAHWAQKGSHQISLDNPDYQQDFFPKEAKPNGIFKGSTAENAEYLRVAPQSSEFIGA
Sequence of EGFR wildtype (WT) (P00533 25-1210): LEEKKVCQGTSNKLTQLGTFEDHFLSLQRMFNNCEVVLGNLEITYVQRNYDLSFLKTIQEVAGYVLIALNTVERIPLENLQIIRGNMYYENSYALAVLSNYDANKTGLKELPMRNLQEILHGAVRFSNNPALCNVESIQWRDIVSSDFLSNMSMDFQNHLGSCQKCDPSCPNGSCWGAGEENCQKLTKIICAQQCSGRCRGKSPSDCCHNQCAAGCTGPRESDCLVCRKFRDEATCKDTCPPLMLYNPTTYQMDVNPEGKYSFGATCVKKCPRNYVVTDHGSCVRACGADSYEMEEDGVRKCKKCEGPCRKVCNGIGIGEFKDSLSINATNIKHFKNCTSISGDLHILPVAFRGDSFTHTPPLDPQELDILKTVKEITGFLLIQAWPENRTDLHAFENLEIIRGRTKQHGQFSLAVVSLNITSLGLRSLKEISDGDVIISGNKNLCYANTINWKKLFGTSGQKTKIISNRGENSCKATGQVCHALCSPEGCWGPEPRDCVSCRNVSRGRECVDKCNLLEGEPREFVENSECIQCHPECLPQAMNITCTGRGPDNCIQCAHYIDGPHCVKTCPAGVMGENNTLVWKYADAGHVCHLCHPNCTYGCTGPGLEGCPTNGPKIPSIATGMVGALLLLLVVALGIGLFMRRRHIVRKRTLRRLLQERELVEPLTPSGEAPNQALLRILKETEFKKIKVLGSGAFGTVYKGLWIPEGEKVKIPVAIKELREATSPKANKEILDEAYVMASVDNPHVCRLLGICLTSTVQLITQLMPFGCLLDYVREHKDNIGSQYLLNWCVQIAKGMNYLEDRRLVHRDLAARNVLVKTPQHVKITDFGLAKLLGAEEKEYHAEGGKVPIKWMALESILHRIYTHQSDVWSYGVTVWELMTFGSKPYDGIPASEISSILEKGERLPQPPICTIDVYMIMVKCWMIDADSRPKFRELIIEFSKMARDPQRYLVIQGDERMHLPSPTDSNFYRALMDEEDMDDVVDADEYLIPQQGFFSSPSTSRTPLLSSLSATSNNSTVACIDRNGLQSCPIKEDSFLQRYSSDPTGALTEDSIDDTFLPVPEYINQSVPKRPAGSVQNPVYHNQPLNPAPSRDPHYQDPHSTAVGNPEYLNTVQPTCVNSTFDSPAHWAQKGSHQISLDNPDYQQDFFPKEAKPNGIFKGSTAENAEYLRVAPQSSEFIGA
Sequence of EGFR L858R/C797S (P00533 25-1210 C797S/L858R): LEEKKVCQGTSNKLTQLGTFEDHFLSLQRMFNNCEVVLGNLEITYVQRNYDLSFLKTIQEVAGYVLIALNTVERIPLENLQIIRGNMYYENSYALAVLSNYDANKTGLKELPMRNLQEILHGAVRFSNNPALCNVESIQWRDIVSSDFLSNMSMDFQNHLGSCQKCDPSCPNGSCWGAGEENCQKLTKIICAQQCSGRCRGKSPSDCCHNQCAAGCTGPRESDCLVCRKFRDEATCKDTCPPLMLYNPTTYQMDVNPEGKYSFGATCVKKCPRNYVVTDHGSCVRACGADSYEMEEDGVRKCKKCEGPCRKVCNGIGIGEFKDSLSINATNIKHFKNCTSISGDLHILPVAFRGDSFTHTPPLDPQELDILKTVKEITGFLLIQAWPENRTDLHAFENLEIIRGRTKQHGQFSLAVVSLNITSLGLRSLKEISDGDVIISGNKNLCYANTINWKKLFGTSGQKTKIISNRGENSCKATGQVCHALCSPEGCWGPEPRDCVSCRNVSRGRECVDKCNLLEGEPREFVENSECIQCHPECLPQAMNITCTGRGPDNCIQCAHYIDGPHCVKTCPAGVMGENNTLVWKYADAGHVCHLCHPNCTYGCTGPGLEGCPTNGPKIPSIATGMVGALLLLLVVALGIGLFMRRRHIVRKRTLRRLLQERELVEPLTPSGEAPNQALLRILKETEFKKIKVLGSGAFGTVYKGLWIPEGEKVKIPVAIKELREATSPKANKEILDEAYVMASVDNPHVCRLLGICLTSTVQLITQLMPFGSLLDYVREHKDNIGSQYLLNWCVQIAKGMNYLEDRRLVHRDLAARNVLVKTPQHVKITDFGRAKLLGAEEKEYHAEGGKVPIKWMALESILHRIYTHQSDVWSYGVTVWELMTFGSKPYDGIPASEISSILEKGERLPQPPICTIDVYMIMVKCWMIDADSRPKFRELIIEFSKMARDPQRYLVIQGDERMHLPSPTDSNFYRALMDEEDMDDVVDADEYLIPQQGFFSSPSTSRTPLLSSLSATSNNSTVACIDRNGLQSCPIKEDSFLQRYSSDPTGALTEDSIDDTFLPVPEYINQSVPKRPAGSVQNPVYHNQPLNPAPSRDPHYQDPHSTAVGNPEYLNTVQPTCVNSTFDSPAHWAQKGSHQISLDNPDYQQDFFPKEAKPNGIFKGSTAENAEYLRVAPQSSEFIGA
Sequence of EGFR Del19/T790M/C797S (P00533 with tags, fused parts or gaps DEL746-750/T790M/C797S): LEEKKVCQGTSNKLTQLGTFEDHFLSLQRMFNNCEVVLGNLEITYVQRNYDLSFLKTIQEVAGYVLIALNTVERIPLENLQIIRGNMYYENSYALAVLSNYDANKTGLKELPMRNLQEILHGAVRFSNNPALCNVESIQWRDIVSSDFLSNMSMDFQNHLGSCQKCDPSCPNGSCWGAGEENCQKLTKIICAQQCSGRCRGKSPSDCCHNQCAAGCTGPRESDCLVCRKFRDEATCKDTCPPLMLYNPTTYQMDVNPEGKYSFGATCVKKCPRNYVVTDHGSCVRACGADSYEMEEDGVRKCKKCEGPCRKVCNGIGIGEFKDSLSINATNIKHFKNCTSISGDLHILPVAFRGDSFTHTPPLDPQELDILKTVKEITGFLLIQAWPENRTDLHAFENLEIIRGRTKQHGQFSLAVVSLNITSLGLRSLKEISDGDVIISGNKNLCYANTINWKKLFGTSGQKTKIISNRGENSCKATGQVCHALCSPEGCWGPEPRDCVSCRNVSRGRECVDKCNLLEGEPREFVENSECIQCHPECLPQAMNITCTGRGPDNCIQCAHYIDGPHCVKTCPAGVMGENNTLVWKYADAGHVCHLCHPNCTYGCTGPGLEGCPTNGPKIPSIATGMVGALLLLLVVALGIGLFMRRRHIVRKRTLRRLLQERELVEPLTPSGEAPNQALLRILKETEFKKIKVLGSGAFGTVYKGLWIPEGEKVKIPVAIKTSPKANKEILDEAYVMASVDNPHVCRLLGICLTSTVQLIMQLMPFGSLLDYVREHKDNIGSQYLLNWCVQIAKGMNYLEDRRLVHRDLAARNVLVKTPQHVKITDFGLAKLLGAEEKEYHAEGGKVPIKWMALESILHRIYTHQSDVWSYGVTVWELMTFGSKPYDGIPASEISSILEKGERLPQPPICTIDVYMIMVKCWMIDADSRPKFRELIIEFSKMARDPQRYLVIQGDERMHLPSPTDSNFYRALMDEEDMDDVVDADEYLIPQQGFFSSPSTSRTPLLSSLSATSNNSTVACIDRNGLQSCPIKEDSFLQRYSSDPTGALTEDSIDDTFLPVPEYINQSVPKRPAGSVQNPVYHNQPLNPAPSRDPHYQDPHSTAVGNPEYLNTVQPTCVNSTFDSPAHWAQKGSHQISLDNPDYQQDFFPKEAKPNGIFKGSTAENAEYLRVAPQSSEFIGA

Structure (SMILES) | IC50 (EGFR wildtype (WT); IC50 WT (nM), 100 μM ATP) [nM] | IC50 (EGFR L858R/C797S; [1]) [nM] | IC50 (EGFR L858R/T790M/C797S; [2]) [nM] | IC50 (EGFR Del19/T790M/C797S; [3]) [nM] | IC50 (EGFR Del19/C797S; [4]) [nM] | IC50 (EGFR wildtype (WT); [5]) [nM] | IC50 (EGFR L858R/C797S; [6]) [nM] | IC50 (EGFR L858R/T790M/C797S; [7]) [nM] | IC50 (EGFR Del19/T790M/C797S; [8]) [nM] | IC50 (EGFR Del19/C797S; [9]) [nM]
Cn1cc(C#Cc2cnc(Nc3ccnc(-c4cnn(S(=O)(=O)C5CC5)c4)n3)cc2N2CCC(NCCO)CC2)cn1 [Example 131, 2-((1-(2-((2-(1-(Cyclopropylsulfonyl)-1H-pyrazol-4-yl)pyrimidin-4-yl)amino)-5-((1-methyl-1H-pyrazol-4-yl)ethynyl)pyridin-4-yl)piperidin-4-yl)amino)ethan-1-ol] | > 10000 | 35.6 | 2.6 | 0.7 | 50.8 |  |  |  |  | 
COCCNC1CCN(c2cc(Nc3ccnc(-c4cnn(S(=O)(=O)C5CC5)c4)n3)ncc2C#Cc2cnn(C)c2)CC1 [Example 132, 2-(1-(Cyclopropylsulfonyl)-1H-pyrazol-4-yl)-N-(4-(4-((2-methoxyethyl)amino)piperidin-1-yl)-5-((1-methyl-1H-pyrazol-4-yl)ethynyl)pyridin-2-yl)pyrimidin-4-amine] | > 10000 | 46.4 | 4.2 | 1.3 | 131 |  |  |  |  | 
CN(C)CCNC1CCN(c2cc(Nc3ccnc(-c4cnn(S(=O)(=O)C5CC5)c4)n3)ncc2C#Cc2cnn(C)c2)CC1 [Example 133, N^1-(1-(2-((2-(1-(Cyclopropylsulfonyl)-1H-pyrazol-4-yl)pyrimidin-4-yl)amino)-5-((1-methyl-1H-pyrazol-4-yl)ethynyl)pyridin-4-yl)piperidin-4-yl)-N^2,N^2-dimethylethane-1,2-diamine] | 3840 | 3.5 | 0.4 | 0.3 | 2.4 |  |  |  |  | 
CN(C)C(C)(C)CNC1CCN(c2cc(Nc3ccnc(-c4cnn(S(=O)(=O)C5CC5)c4)n3)ncc2C#Cc2cnn(C)c2)CC1 [Example 134, N^4-(1-(2-((2-(1-(Cyclopropylsulfonyl)-1H-pyrazol-4-yl)pyrimidin-4-yl)amino)-5-((1-methyl-1H-pyrazol-4-yl)ethynyl)pyridin-4-yl)piperidin-4-yl)-N^2,N^2,2-trimethylpropane-1,2-diamine] | > 10000 | 121 | 0.9 | 0.4 | 2.3 | 40.5 | 5.6 | 0.1 | 0.4 | 1.5
Cn1cc(C#Cc2cnc(Nc3ccnc(-c4cnn(S(=O)(=O)C5CC5)c4)n3)cc2N2CCC(NCC(F)(F)F)CC2)cn1 [Example 135, 2-(1-(Cyclopropylsulfonyl)-1H-pyrazol-4-yl)-N-(5-((1-methyl-1H-pyrazol-4-yl)ethynyl)-4-(4-((2,2,2-trifluoroethyl)amino)piperidin-1-yl)pyridin-2-yl)pyrimidin-4-amine] | > 10000 | 40.6 | 5.2 | 2.6 | 3 | 28.7 | 4.1 | 0.6 | 0.7 | 1.6
O=S(=O)(C1CC1)n1cc(-c2nccc(Nc3cc(N4CCC(NCCF)CC4)c(C#Cc4cnn(C5CCOCC5)c4)cn3)n2)cn1 [Example 136, 2-(1-(Cyclopropylsulfonyl)-1H-pyrazol-4-yl)-N-(4-(4-((2-fluoroethyl)amino)piperidin-1-yl)-5-((1-(tetrahydro-2H-pyran-4-yl)-1H-pyrazol-4-yl)ethynyl)pyridin-2-yl)pyrimidin-4-amine] | > 10000 | 30.5 | 1.2 | 0.3 | 4.9 | 60.2 | 2.7 | 0.3 | 0.3 | 3.3
O=S(=O)(C1CC1)n1cc(-c2nccc(Nc3cc(N4CCC(NCCO)CC4)c(C#Cc4cnn(C5CCOCC5)c4)cn3)n2)cn1 [Example 137, 2-((1-(2-((2-(1-(Cyclopropylsulfonyl)-1H-pyrazol-4-yl)pyrimidin-4-yl)amino)-5-((1-(tetrahydro-2H-pyran-4-yl)-1H-pyrazol-4-yl)ethynyl)pyridin-4-yl)piperidin-4-yl)amino)ethan-1-ol] | > 10000 | 74.2 | 2 | 0.4 | 11.7 | 174 | 5 | 0.4 | 0.4 | 8.8
CN(C)CCNC1CCN(c2cc(Nc3ccnc(-c4cnn(S(=O)(=O)C5CC5)c4)n3)ncc2C#Cc2cnn(C3CCOCC3)c2)CC1 [Example 138, N^1-(1-(2-((2-(1-(Cyclopropylsulfonyl)-1H-pyrazol-4-yl)pyrimidin-4-yl)amino)-5-((1-(tetrahydro-2H-pyran-4-yl)-1H-pyrazol-4-yl)ethynyl)pyridin-4-yl)piperidin-4-yl)-N^2,N^2-dimethylethane-1,2-diamine] | 2940 | 8.7 | 0.4 | 0.3 | 1.3 | 7.8 | 0.9 | 0.1 | 0.3 | 1
CC(=O)N1CCC(n2cc(C#Cc3cnc(Nc4ccnc(-c5cnn(S(=O)(=O)C6CC6)c5)n4)cc3N3CCC(NCCN(C)C)CC3)cn2)CC1 [Example 139, 1-(4-(4-((6-((2-(1-(Cyclopropylsulfonyl)-1H-pyrazol-4-yl)pyrimidin-4-yl)amino)-4-(4-((2-(dimethylamino)ethyl)amino)piperidin-1-yl)pyridin-3-yl)ethynyl)-1H-pyrazol-1-yl)piperidin-1-yl)ethan-1-one] | 1580 | 8.2 | 0.4 | 0.4 | 1.4 | 5.4 | 0.9 | 0.1 | 0.4 | 0.9
CNC1CCN(c2cc(Nc3ccnc(-c4cnn(S(=O)(=O)C5CC5)c4)n3)ncc2C#Cc2ccn(C)n2)CC1 [Example 140, 2-(1-(Cyclopropylsulfonyl)-1H-pyrazol-4-yl)-N-(5-((1-methyl-1H-pyrazol-3-yl)ethynyl)-4-(4-(methylamino)piperidin-1-yl)pyridin-2-yl)pyrimidin-4-amine] | > 10000 | 887 | 6.4 | 1.8 | 176 | 622 | 23.2 | 1.3 | 1.3 | 114
Cn1ccc(C#Cc2cnc(Nc3ccnc(-c4cnn(S(=O)(=O)C5CC5)c4)n3)cc2N2CCC(NCCF)CC2)n1 [Example 141, 2-(1-(Cyclopropylsulfonyl)-1H-pyrazol-4-yl)-N-(4-(4-((2-fluoroethyl)amino)piperidin-1-yl)-5-((1-methyl-1H-pyrazol-3-yl)ethynyl)pyridin-2-yl)pyrimidin-4-amine] | > 10000 | 1900 | 3.4 | 0.9 | 49.1 | 256 | 13.7 | 0.7 | 0.7 | 48.7
CN(C)CCNC1CCN(c2cc(Nc3ccnc(-c4cnn(S(=O)(=O)C5CC5)c4)n3)ncc2C#Cc2ccn(C)n2)CC1 [Example 142, N^1-(1-(2-((2-(1-(Cyclopropylsulfonyl)-1H-pyrazol-4-yl)pyrimidin-4-yl)amino)-5-((1-methyl-1H-pyrazol-3-yl)ethynyl)pyridin-4-yl)piperidin-4-yl)-N^2,N^2-dimethylethane-1,2-diamine] | > 10000 | 176 | 0.9 | 0.4 | 8.4 | 31.3 | 3.9 | 0.2 | 0.4 | 5.9
CN(C)CCNC1CCN(c2cc(Nc3ccnc(-c4cnn(S(=O)(=O)C5CC5)c4)n3)ncc2C#Cc2cnn(C(F)(F)F)c2)CC1 [Example 143, N^1-(1-(2-((2-(1-(Cyclopropylsulfonyl)-1H-pyrazol-4-yl)pyrimidin-4-yl)amino)-5-((1-(trifluoromethyl)-1H-pyrazol-4-yl)ethynyl)pyridin-4-yl)piperidin-4-yl)-N^2,N^2-dimethylethane-1,2-diamine] | > 10000 | 83.5 | 0.9 | 0.5 | 1.9 | 14.3 | 1.8 | 0.3 | 0.5 | 1.2
CN(C)CCn1cc(C#Cc2cnc(Nc3ccnc(-c4cnn(S(=O)(=O)C5CC5)c4)n3)cc2N2CCC(NCCF)CC2)cn1 [Example 144, 2-(1-(Cyclopropylsulfonyl)-1H-pyrazol-4-yl)-N-(5-((1-(2-(dimethylamino)ethyl)-1H-pyrazol-4-yl)ethynyl)-4-(4-((2-fluoroethyl)amino)piperidin-1-yl)pyridin-2-yl)pyrimidin-4-amine] | > 10000 | 34.3 | 0.4 | 0.3 | 0.9 | 23.8 | 0.8 | 0.1 | 0.3 | 0.8
